Measured values from patent US20190358181A1, “METHODS FOR AUTISM SPECTRUM DISORDER PHARMACOTHERAPY” (priority 2017, published 2019).

System: 610 metabolites from 63 biochemical pathways
Assay: Targeted broad-spectrum plasma metabolomic analysis (LC-MS/MS), paired pre-infusion vs post-infusion (2-days and 6-weeks)
Type: in vivo, human
Details: for Linear Ratio / VIP Score / Z Abs / Z Score: plasma
Experimental: Targeted, broad-spectrum, plasma metabolomic analysis of 610 metabolites from 63 biochemical pathways was performed by high performance liquid chromatography and tandem mass spectrometry (LC-MS/MS) on the samples collected from patients in Example 1. Venous blood was collected between the hours of 8 am and 5 pm, at least 3 hours after the last meal, into lithium-heparin vacutainer tubes (BD #367884). Plasma was separated by centrifugation at 900 g×10 minutes at room temperature within one hour of collection. The resulting fresh lithium-heparin plasma was transferred to labeled 1.2 ml or 2.0 ml externally threaded cryotubes with a minimum headspace air gap for storage at −80° C. for analysis. Samples were analyzed on an AB SCIEX QTRAP 5500 triple quadrupole mass spectrometer equipped with a Turbo V electrospray ionization (ESI) source, Shimadzu LC-20A UHPLC system, and a PAL CTC autosampler. Typically, 90 μl of plasma was thawed on ice and transferred to a 1.7 ml Eppendorf tube. Five (5.0) μl of a cocktail containing 25-35 commercial stable isotope internal standards, and 5.0 μl of 57 stable isotope internal standards that were custom-synthesized in E. coli NCM3722, Caenorhabditis elegans N2, and Komagataella phaffii (ATCC 76273; formerly known as Pichia pastoris) by metabolic labeling with 13C-glucose and 13C-bicarbonate, were added, mixed, and incubated for 10 min at 20° C. to permit small molecules and vitamins in the internal standards to associate with plasma binding proteins. Macromolecules (protein, DNA, RNA, glycans, etc.) were precipitated by extraction with 4 volumes (400 μl) of cold (−20° C.), acetonitrile:methanol (50:50) (LCMS grade, Cat #LC015-2.5 and GC230-4, Burdick & Jackson, Honeywell), vortexed vigorously, and incubated on crushed ice for 10 min, then removed by centrifugation at 16,000 g×10 min at 4° C. The supernatants containing the extracted metabolites and internal standards in the resulting 40:40:20 solvent mix of acetonitrile:methanol:water were transferred to labeled cryotubes and stored at −80° C. for LCMS/MS analysis.
LC-MS/MS analysis was performed by scheduled multiple reaction monitoring (sMRM) under Analyst v1.6.2 software control in both negative and positive mode with rapid polarity switching (50 ms). Nitrogen was used for curtain gas (set to 30), collision gas (set to high), ion source gas 1 and 2 (set to 35). The source temperature was 500° C. Spray voltage was set to −4500 V in negative mode and 5500 V in positive mode. The values for Q1 and Q3 mass-to-charge ratios (m/z), declustering potential (DP), entrance potential (EP), collision energy (CE), and collision cell exit potential (CXP) were determined and optimized for each MRM for each metabolite. Ten microliters of extract was injected by PAL CTC autosampler via a 10 μl stainless steel loop into a 250 mm×2.0 mm, 4 μm polymer based NH2 HPLC column (Asahipak NH2P-40 2E, Showa Denko America, Inc., NY) held at 25° C. for chromatographic separation. The mobile phase was solvent A: 95% water with 20 mM (NH4)2CO3 (Sigma, Fluka Cat #74415-250G-F), 5% acetonitrile, and 38 mM NH4OH (Sigma, Fluka Cat #17837-100ML), final pH 9.75; solvent B: 100% acetonitrile. Separation was achieved using the following gradient: 0-3.5 min: 95% B, 3.6-8 min: 85% B, 8.1-13 min: 75% B, 13.5-35 min: 0% B, 36-46 min: 95% B, 46.1 min: end. The flow rate was 200 μl/min. Pump pressures ranged from 920-2600 psi over the course of the gradient. All the samples were kept at 4° C. during analysis. The chromatographic peaks were identified using MultiQuant (v3.0, Sciex), confirmed by manual inspection, and the peak areas integrated. […]

[1] = Nitric Oxide, Superoxide, Peroxide Metabolism, 6-weeks
[2] = Nitric Oxide, Superoxide, Peroxide, 2-days
[3] = Phospholipid Metabolism, 2-days
[4] = Phospholipid Metabolism, 6-weeks

## Cc1ccc(C(=O)Nc2ccc(S(=O)(=O)O)c3cc(S(=O)(=O)O)cc(S(=O)(=O)O)c23)cc1NC(=O)c1cccc(NC(=O)Nc2cccc(C(=O)Nc3cc(C(=O)Nc4ccc(S(=O)(=O)O)c5cc(S(=O)(=O)O)cc(S(=O)(=O)O)c45)ccc3C)c2)c1 [Suramin, suramin]
Krebs Cycle, 2-days
  Fold Enrichment (Obs/Exp): 1.6
  Fraction of Impact (VIP Score) Explained (% of 119.7): 3%
  Impact (Sum VIP Score): 3.3
  Increased: 2
  Observed Hits in the Top 61 Metabolites: 2
Krebs Cycle, 6-weeks
  Decreased: 0
  Fold Enrichment (Obs/Exp): 2.0
  Fraction of Impact (VIP Score) Explained (% of 94.6): 5%
  Impact (Sum VIP Score): 4.3
  Increased: 2
  Observed Hits in the Top 48 Metabolites: 2
L-Asparagine, 6-weeks
  Linear Ratio: 1.360
  VIP Score: 1.824
  Z Abs: 1.581
  Z Score: 1.581
L-Cystine, 6-weeks
  Linear Ratio: 1.190
  VIP Score: 1.774
  Z Abs: 1.060
  Z Score: 1.060
L-Kynurenine, 6-weeks
  Linear Ratio: 1.303
  VIP Score: 2.096
  Z Abs: 1.751
  Z Score: 1.751
L-Phenylalanine, 6-weeks
  Linear Ratio: 1.245
  VIP Score: 1.875
  Z Abs: 1.381
  Z Score: 1.381
L-Proline, 6-weeks
  Linear Ratio: 1.196
  VIP Score: 1.546
  Z Abs: 0.749
  Z Score: 0.749
L-Serine, 6-weeks
  Linear Ratio: 1.152
  VIP Score: 1.505
  Z Abs: 0.954
  Z Score: 0.954
Lathosterol, 6-weeks
  Linear Ratio: 1.284
  VIP Score: 1.844
  Z Abs: 1.079
  Z Score: 1.079
Methionine sulfoxide, 6-weeks
  Linear Ratio: 1.409
  VIP Score: 2.104
  Z Abs: 2.083
  Z Score: 2.083
Mevalonic acid, 6-weeks
  Linear Ratio: 1.386
  VIP Score: 1.673
  Z Abs: 1.036
  Z Score: 1.036
Microbiome Metabolism, 2-days
  Decreased: 0
  Fold Enrichment (Obs/Exp): 1.6
  Fraction of Impact (VIP Score) Explained (% of 119.7): 8%
  Impact (Sum VIP Score): 9.3
  Increased: 4
  Observed Hits in the Top 61 Metabolites: 4
Microbiome Metabolism, 6-weeks
  Decreased: 0
  Fold Enrichment (Obs/Exp): 2.0
  Fraction of Impact (VIP Score) Explained (% of 94.6): 9%
  Impact (Sum VIP Score): 8.4
  Increased: 4
  Observed Hits in the Top 48 Metabolites: 4
[1]
  Decreased: 0
  Fold Enrichment (Obs/Exp): 4.5
  Fraction of Impact (VIP Score) Explained (% of 94.6): 2%
  Impact (Sum VIP Score): 2.2
  Increased: 1
  Observed Hits in the Top 48 Metabolites: 1
[2]
  Decreased: 1
  Fold Enrichment (Obs/Exp): 3.5
  Fraction of Impact (VIP Score) Explained (% of 119.7): 2%
  Impact (Sum VIP Score): 1.9
  Increased: 0
  Observed Hits in the Top 61 Metabolites: 1
Octanoylcarnitine, 6-weeks
  Linear Ratio: 0.703
  VIP Score: 1.780
  Z Abs: 1.451
  Z Score: −1.451
PE (18:0/18:0), 6-weeks
  Linear Ratio: 0.644
  VIP Score: 1.555
  Z Abs: 1.331
  Z Score: −1.331
[3]
  Decreased: 3
  Fold Enrichment (Obs/Exp): 0.3
  Fraction of Impact (VIP Score) Explained (% of 119.7): 5%
  Impact (Sum VIP Score): 5.7
  Increased: 0
  Observed Hits in the Top 61 Metabolites: 3
[4]
  Decreased: 1
  Fold Enrichment (Obs/Exp): 0.1
  Fraction of Impact (VIP Score) Explained (% of 94.6): 2%
  Impact (Sum VIP Score): 1.6
  Increased: 0
  Observed Hits in the Top 48 Metabolites: 1
Purine Metabolism, 2-days
  Decreased: 5
  Fold Enrichment (Obs/Exp): 2.4
